Article PMC8500670, “A selective WDR5 degrader inhibits acute myeloid leukemia in patient-derived mouse models” (Science translational medicine, 2021)

Tests used:
Assay in all cases: biochemical
Set-up in all cases: protein methyltransferase inhibition panel, single concentration, duplicate
[1] = biological target: T1, NSD3 (Homo sapiens, UniProt Q9BZ95)
T1 sequence (Q9BZ95 1-1437): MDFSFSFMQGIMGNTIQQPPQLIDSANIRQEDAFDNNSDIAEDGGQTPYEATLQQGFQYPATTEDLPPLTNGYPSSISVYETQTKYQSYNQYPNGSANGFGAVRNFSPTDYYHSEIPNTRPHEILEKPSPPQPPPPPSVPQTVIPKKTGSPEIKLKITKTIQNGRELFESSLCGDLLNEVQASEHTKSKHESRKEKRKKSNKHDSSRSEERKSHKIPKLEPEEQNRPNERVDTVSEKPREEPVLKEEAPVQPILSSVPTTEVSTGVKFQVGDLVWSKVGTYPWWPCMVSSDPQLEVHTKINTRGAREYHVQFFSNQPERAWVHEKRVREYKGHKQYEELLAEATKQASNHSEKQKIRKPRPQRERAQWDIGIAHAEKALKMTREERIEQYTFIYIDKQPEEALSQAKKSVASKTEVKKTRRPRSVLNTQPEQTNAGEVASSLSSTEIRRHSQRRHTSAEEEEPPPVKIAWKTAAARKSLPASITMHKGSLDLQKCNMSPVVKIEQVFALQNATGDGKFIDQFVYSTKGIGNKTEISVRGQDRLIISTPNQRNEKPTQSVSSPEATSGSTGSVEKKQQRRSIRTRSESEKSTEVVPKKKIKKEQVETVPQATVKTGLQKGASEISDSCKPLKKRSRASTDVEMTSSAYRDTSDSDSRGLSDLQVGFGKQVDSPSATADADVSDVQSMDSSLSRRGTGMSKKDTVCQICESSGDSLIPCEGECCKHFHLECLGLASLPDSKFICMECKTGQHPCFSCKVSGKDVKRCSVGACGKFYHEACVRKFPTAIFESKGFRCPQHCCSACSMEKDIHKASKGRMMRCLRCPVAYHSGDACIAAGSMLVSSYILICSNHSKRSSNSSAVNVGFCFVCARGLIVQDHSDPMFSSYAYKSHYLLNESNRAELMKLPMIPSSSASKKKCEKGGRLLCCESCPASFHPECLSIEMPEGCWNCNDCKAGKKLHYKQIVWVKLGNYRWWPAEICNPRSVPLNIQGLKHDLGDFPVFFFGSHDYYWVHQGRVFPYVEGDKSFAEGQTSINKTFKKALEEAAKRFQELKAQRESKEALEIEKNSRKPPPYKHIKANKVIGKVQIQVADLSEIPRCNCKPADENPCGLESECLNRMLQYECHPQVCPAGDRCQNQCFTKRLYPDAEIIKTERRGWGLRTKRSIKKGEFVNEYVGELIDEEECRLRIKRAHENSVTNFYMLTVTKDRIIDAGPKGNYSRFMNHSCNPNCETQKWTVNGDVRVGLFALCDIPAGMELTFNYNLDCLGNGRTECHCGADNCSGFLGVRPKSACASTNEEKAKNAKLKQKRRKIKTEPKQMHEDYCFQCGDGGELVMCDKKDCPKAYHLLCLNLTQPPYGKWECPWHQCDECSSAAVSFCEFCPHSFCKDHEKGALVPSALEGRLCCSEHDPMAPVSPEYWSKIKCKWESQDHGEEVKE
Experimental: (§1) We next assessed selectivity of MS67 against 22 protein methyltransferases (table S2) and a broad panel of common drug targets including 45 kinases (table S3) and 44 G protein–coupled receptors (GPCR), ion channels, and transporters (table S4). […] We subsequently determined that MS67 had moderate binding affinity (Ki = 1.0 ± 0.8 μM) to Sigma 2 receptor (fig. S10).

[2] = biological target: SETD2 (Homo sapiens, UniProt Q9BYW2)
Experimental: as §1

[3] = biological target: SUV39H2 (Homo sapiens, UniProt Q9H5I1)
Experimental: as §1

[4] = biological target: T2, G9a (Homo sapiens, UniProt Q96KQ7)
T2 construct: gene EHMT2
T2 sequence (Q96KQ7 1-1210): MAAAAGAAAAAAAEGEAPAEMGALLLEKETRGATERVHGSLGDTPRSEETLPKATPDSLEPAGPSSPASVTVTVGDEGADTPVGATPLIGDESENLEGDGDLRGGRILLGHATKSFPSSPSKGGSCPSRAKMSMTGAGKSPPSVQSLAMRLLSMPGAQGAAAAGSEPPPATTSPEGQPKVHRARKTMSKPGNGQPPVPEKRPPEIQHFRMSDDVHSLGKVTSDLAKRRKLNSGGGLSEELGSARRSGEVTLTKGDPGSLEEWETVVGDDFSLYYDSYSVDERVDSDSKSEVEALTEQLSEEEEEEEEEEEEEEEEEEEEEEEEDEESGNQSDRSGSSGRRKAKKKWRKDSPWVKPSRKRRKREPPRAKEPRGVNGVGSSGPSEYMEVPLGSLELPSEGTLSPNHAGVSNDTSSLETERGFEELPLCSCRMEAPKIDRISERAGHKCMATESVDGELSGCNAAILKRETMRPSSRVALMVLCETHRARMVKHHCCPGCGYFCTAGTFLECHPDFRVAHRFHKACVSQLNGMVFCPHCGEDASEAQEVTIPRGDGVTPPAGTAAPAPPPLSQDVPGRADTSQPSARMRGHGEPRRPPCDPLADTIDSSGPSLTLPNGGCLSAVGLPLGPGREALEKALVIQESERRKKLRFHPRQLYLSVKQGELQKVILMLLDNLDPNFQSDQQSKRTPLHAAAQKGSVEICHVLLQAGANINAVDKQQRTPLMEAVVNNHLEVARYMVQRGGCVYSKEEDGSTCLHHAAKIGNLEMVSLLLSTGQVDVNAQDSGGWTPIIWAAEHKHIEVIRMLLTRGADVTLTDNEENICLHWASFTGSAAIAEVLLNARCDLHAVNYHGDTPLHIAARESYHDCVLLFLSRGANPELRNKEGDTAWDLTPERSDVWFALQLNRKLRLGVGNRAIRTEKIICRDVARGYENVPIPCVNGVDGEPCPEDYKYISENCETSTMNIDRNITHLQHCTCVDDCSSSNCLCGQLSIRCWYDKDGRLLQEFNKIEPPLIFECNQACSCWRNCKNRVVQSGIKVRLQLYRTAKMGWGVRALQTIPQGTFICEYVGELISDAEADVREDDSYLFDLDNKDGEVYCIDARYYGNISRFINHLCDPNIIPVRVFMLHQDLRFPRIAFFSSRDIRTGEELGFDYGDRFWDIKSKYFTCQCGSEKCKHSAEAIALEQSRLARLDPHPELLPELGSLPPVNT
Experimental: as §1

Measured: inhibition at 10 µM

Chain of SETD2 (Q9BYW2 whole entry): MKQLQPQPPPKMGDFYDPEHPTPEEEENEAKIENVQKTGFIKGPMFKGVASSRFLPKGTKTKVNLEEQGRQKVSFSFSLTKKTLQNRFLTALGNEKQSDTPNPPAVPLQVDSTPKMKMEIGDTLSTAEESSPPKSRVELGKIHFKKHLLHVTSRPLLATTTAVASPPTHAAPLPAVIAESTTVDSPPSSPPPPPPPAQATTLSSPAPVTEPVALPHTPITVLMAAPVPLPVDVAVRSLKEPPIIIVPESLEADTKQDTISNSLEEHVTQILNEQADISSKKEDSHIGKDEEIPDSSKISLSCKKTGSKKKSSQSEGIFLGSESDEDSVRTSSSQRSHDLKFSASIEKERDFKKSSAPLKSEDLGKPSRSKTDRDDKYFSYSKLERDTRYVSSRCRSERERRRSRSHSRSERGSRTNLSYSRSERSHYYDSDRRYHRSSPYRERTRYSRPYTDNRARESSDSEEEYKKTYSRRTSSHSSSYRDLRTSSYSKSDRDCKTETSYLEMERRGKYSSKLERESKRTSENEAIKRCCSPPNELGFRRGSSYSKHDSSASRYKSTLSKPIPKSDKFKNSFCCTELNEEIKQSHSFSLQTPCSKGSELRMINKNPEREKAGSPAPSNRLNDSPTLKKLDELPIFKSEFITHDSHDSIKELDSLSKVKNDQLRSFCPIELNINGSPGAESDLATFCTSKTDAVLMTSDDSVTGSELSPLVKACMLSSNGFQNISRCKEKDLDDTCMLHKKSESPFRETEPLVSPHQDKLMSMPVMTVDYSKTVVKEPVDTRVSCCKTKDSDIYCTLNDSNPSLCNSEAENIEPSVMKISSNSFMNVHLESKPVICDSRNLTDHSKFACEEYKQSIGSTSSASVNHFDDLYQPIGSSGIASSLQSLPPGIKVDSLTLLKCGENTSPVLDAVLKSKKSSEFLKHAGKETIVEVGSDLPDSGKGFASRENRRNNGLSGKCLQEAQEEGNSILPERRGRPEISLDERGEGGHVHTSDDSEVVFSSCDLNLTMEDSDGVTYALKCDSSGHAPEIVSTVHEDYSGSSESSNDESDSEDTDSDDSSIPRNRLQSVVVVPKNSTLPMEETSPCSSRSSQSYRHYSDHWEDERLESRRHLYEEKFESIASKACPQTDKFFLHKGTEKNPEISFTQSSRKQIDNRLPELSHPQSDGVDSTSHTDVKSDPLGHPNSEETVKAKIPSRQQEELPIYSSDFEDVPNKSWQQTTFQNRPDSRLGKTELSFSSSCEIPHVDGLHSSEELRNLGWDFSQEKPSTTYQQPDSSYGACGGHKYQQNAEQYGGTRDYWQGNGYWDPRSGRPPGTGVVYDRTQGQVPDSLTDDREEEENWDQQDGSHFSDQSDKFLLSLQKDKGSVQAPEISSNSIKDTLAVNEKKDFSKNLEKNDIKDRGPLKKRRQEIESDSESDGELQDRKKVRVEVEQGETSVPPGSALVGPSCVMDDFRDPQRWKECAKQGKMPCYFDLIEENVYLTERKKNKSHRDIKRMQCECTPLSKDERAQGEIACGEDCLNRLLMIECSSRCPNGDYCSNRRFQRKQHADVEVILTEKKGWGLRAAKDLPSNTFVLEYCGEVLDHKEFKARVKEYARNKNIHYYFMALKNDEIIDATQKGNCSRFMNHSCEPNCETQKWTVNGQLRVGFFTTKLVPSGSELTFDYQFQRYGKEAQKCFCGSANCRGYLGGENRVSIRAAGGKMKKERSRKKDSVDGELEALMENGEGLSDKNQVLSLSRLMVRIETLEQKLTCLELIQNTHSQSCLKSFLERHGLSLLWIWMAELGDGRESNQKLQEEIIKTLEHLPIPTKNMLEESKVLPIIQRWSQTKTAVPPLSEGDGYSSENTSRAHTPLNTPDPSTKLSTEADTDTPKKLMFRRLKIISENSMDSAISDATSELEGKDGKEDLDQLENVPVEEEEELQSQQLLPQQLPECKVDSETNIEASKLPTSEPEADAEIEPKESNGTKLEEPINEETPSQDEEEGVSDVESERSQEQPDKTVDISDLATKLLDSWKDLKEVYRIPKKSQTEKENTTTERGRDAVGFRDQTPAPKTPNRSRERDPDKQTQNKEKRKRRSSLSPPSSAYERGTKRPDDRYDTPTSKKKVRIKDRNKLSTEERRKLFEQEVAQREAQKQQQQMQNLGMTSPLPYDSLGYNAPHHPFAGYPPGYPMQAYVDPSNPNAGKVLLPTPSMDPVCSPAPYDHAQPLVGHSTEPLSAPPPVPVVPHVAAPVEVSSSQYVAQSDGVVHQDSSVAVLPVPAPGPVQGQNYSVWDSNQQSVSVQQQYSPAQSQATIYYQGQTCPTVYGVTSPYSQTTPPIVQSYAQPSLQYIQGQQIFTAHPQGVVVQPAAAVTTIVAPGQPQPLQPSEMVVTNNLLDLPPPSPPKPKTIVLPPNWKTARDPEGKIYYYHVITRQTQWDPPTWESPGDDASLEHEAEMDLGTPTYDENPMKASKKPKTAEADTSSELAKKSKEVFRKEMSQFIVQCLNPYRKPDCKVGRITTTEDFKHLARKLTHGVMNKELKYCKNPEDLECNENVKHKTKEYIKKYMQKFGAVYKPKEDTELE
Chain of SUV39H2 (Q9H5I1 whole entry): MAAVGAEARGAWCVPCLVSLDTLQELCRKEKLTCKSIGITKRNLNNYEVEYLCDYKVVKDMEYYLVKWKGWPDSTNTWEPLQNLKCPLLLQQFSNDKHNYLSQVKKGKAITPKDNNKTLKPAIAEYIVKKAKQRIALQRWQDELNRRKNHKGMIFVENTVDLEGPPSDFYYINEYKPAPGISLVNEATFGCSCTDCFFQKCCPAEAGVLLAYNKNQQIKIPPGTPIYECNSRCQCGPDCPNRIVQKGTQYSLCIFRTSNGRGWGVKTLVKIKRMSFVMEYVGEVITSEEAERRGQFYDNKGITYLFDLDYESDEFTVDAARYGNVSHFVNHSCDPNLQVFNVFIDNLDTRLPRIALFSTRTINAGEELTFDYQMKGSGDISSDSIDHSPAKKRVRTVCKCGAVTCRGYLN

Cc1ncsc1-c1ccc([C@H](C)NC(=O)[C@@H]2C[C@@H](O)CN2C(=O)[C@@H](NC(=O)CNC(=O)c2ccc(F)c(-c3ccc(N4C[C@@H](C)N(C)[C@@H](C)C4)c(NC(=O)c4c[nH]c(=O)cc4C(F)(F)F)c3)c2)C(C)(C)C)cc1 [MS67]
< 10%: all assays above
